# Experiments:
# DBA/1 mice = experiment: Audiogenic seizures (AGSz) and S-IRA in DBA/1 mice, initial testing protocol (30 min, 12 h, 24 h, then 24 h intervals); assay type: in vivo, mouse
# Excerpt: These studies involved age matched (<80 days) male DBA/1 mice obtained from ENVIGO. Because there were no significant sex differences in the AGSz incidence (frequency), severity and S-IRA susceptibility in DBA/1 mice, males were used in this study. The mice were primed as described in previous studies (Faingold et al., (2010). Epilepsy Behav. 17:436-40; Faingold, et al. (2011) Brain Res. 1418:104-10; Faingold, et al., (2011) Epilepsy Behav. 22:186-90). Briefly, the mice were maintained on an ad libitum diet under a 12 h light-dark cycle in a temperature and humidity-controlled laboratory animal medicine facility. Starting at postnatal day 23-25, the mice were primed and tested for consistent susceptibility to AGSz and S-IRA by presenting an intense acoustic stimulus, as described previously.
# The typical seizure semiology in the DBA/1 mice begins with a wild running phase, followed by clonic-tonic seizures and then tonic hind-limb extension that immediately leads to S-IRA during post-ictal behavioral depression (PID). The onset of S-IRA was visually determined by the occurrence of respiratory failure following loss of the righting reflex, relaxation of the pinnae, and then a generalized loss of muscle tone. These behaviors are reliable indicators of imminent sudden death in DBA mice. Resuscitation was initiated within 10 s after pinna relaxation and the generalized loss of muscle tone, which was effective in reversing S-IRA and reviving >90% of the mice. The mice were placed in a supine position, and a polyethylene tube (4.4 mm external diameter) connected to the outflow of a rodent respirator (Harvard Apparatus 680), pumping one cc of room air at 200 strokes/min, was the placed over the nostrils, which produced observable displacement of the chest. Respiratory support was provided until spontaneous breathing rhythm returned, which required ˜19 sec. The mice were monitored until they regained the righting reflex and then returned to their home cage. Video recordings of seizure behaviors and recovery were made for off-line evaluation and analysis, including the duration of PID, as indicated by time from muscle tone loss to return of the righting reflex.
# The experiments herein disclosed examined the dose-response relationship of FFA (10-40 mg/kg, i.p.) on AGSz-induced behaviors in DBA/1 mice compared to vehicle (saline) treated control mice using different seizure-testing protocols. This initial protocol involved induction of AGSz at 30 min, 12 h and 24 h after drug administration, and subsequently at 24 h intervals until susceptibility to S-IRA returned. These studies were aimed at determining whether FFA can reduce the incidence (frequency) and severity of AGSz and susceptibility to S-IRA. […] To determine the effect of FFA on the severity of AGSz in DBA/1 mice, the ordinal scoring system of De Sarro and coworkers was used: no seizure=0; wild running=1; clonic seizure=2; tonic seizure=3; death/S-IRA=4. The median effective dose (ED50) for FFA for blocking AGSz at 30 min following the i.p. injection in DBA/1 mice was calculated using a second order polynomial equation (y=65.113x^2-2.0715x-63.578) that gave the best fit (R^2=0.9989).
# The videos of seizure behaviors were analyzed visually, and the incidence (frequency) of AGSz, seizure severity, and incidence (frequency) of S-IRA following drug treatment were compared statistically to vehicle controls using the Chi-square, Mann-Whitney U or paired samples t-test with SPSS software. The ED50 was calculated using SigmaPlot 13 and Microsoft® Excel. The experimental protocols used in these studies were approved by the Laboratory Animal Care and Use Committee of Southern Illinois University School of Medicine, which are in accordance with National Institutes of Health guidelines for the care and use of laboratory animals. Measures to minimize animal usage as well as pain and discomfort were included in these procedures.
# Dravet syndrome patients = conditions: cited from earlier work
# [1] = tested on: zebrafish model of Dravet syndrome; conditions: in vivo; cited from earlier work
# [2] = 20 and 40 mg/kg i.p., starting at 30 min, vs saline
structure (smiles),measurement,setting,value
"CCNC(C)Cc1cccc(C(F)(F)F)c1 (racemic) [FFA, 3-trifluoromethyl-N-ethylamphetamine]",incidence (frequency) of S-IRA,DBA/1 mice; 10 mg/kg,not affected
same,incidence of tonic seizures,DBA/1 mice; 10 mg/kg,not affected
same,incidence (frequency) of AGSz,DBA/1 mice; 10 mg/kg i.p.,No significant effect
same,AGSz severity,"DBA/1 mice; 10 mg/kg, at 12 h",significantly reduced
same,reduction of S-IRA,"DBA/1 mice; 10 mg/kg, at 12 h",36.4%
same,reduction of tonic seizure,"DBA/1 mice; 10 mg/kg, at 12 h",54.6%
same,mice showing S-IRA blockade following tonic seizure (selective S-IRA block),"DBA/1 mice; 10 mg/kg, at 12 h, not statistically significant",18.2%
same,duration of AGSz blockade,DBA/1 mice; 15 mg/kg,< 24 h
same,onset of AGSz blockade,DBA/1 mice; 15 mg/kg,12 h
same,tonic seizure blocking effect,DBA/1 mice; 15 mg/kg,delayed and transient
same,return of maximal seizure severity,DBA/1 mice; 20 mg/kg,24 h
same,duration of seizure severity decrease,DBA/1 mice; 40 mg/kg,up to 8 days
same,mice continuing to show reduced susceptibility to tonic AGSz and S-IRA for up to 8 days,DBA/1 mice; 40 mg/kg,33.3%
same,return of maximal seizure severity,DBA/1 mice; 40 mg/kg,48 h
same,time at which reduction in severity score occurred,DBA/1 mice; 10 and 15 mg/kg,12 h
same,incidence (frequency) of AGSz,"DBA/1 mice; 15, 20 and 40 mg/kg i.p. vs saline treated controls",significantly reduce
same,incidence (frequency) of S-IRA,"DBA/1 mice; 15, 20 and 40 mg/kg i.p., beginning at 30 min, vs saline",significant reduction
same,"duration of reductions of seizure incidence, severity and S-IRA susceptibility",DBA/1 mice; 20-40 mg/kg,≥ 48 h
same,susceptibility to AGSz,"DBA/1 mice; 20 and 40 mg/kg i.p., at 30 minutes, vs saline-treated controls",significantly reduced
same,median AGSz severity score,DBA/1 mice; [2],significant reduction
same,tonic seizure incidence,DBA/1 mice; [2],significant reduction
same,return of S-IRA susceptibility,"DBA/1 mice; FFA-treated mice, initial protocol",≤ 72 h
same,ED50,"DBA/1 mice; Mus musculus, ip, 0.5 h, 30 min after i.p. injection, read-out: ED50 for blockade of AGSz",21.7 mg/kg
same,frequency and/or severity of intractable seizures,Dravet syndrome patients,significantly reduced
same,blocking electrographic and seizure-like behavioral activity,[1],effective

# From patent publication US11571397B2, “Compositions and methods for treating seizure-induced sudden death” (ZOGENIX INTERNATIONAL LIMITED, priority 2018, dated 2023)
